# In publication PMC12661293 (RSC Advances, 2025):
# Columns and labels:
# [1] = target: T1, α-amylase (Sus scrofa, UniProt P00690); test: In vitro α-amylase inhibitory assay; format: biochemical, porcine; details: for inhibition at 10 µM: read-out: %Inhibition at 10 µM; for inhibition at 40 µM: read-out: %Inhibition at 40 µM; for inhibition at 80 µM: read-out: %Inhibition at 80 µM; for inhibition at 140 µM: read-out: %Inhibition at 140 µM; for inhibition at 260 µM: read-out: %Inhibition at 260 µM; for inhibition at 400 µM: read-out: %Inhibition at 400 µM; for inhibition at 500 µM: read-out: %Inhibition at 500 µM
# T1 sequence (P00690 16-511): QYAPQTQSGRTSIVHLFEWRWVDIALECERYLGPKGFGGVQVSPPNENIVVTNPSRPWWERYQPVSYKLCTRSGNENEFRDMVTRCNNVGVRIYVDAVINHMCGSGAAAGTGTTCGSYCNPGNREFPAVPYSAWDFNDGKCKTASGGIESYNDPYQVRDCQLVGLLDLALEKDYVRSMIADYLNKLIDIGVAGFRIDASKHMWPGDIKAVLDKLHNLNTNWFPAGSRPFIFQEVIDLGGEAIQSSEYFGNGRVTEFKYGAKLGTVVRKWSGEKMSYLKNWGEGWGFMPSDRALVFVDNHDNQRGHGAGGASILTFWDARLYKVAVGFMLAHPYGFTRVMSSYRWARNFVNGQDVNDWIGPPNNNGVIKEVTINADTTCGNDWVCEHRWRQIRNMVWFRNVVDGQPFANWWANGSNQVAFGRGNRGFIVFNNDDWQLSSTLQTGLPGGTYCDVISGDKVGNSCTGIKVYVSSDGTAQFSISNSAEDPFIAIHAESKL
# [2] = target: α-glucosidase (Saccharomyces cerevisiae, UniProt P53341); test: In vitro α-glucosidase inhibitory assay; format: biochemical; details: for inhibition at 10 µM: read-out: %Inhibition at 10 µM; for inhibition at 40 µM: read-out: %Inhibition at 40 µM; for inhibition at 100 µM: read-out: %Inhibition at 100 µM; for inhibition at 140 µM: read-out: %Inhibition at 140 µM; for inhibition at 350 µM: read-out: %Inhibition at 350 µM; for inhibition at 400 µM: read-out: %Inhibition at 400 µM; for inhibition at 500 µM: read-out: %Inhibition at 500 µM
# [3] = tested on: ct-DNA; test: Spectrophotometric; format: binding, calf; details: ligand fixed 50 µM, ct-DNA 0–80 µM, phosphate buffer pH 7.2
# [4] = tested on: EB-ct-DNA; test: Ethidium bromide displacement fluorescence quenching with ct-DNA; format: binding, calf
# [5] = tested on: ct-DNA; test: Cyclic voltammetry of ligands with ct-DNA; format: binding, calf; details: increasing ct-DNA 10–80 µM, phosphate buffer pH 7.2
# α-glucosidase, sequence (P53341 whole entry): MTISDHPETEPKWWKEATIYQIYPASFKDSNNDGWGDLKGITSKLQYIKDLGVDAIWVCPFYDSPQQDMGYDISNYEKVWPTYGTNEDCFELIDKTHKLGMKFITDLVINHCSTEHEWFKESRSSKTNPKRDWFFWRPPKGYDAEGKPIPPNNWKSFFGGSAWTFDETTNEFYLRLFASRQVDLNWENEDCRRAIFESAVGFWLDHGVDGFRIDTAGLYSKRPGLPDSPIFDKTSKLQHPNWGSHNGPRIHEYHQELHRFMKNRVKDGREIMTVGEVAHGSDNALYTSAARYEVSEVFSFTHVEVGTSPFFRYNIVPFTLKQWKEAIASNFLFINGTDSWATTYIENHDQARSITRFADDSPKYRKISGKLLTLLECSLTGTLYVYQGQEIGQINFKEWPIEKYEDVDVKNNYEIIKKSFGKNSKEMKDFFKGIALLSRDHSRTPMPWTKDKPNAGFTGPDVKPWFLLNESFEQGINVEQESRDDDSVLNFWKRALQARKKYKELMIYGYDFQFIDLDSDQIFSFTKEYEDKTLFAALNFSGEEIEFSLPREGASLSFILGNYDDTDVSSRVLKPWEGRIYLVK
inhibition at 10 µM [1] [%],inhibition at 40 µM [1] [%],inhibition at 80 µM [1] [%],inhibition at 140 µM [1] [%],inhibition at 260 µM [1] [%],inhibition at 400 µM [1] [%],inhibition at 500 µM [1] [%],inhibition at 10 µM [2] [%],inhibition at 40 µM [2] [%],inhibition at 100 µM [2] [%],inhibition at 140 µM [2] [%],inhibition at 350 µM [2] [%],inhibition at 400 µM [2] [%],inhibition at 500 µM [2] [%],IC50 [2] [µM],SMILES,further results
1.2,1.6,6,26.4,39.8,65.1,74.8,2.9,9.44,13,16.2,81.2,97.2,97.7,–,"C[C@H]1O[C@H](O[C@H]2[C@H](O)[C@@H](O)[C@@H](O[C@H]3[C@H](O)[C@@H](O)C(O)O[C@@H]3CO)O[C@@H]2CO)[C@H](O)[C@@H](O)[C@@H]1N[C@H]1C=C(CO)[C@@H](O)[C@H](O)[C@H]1O (stereo partly shown) [Acarbose, acarbose, reference compound]",–
–,–,–,–,–,–,–,–,–,–,–,–,–,–,394,"Cc1cccc(C=CC(=O)c2cnn(-c3ccccc3)c2C)c1 [L^I, 1-(5-methyl-1-phenyl-1H-pyrazol-4-yl)-3-(m-tolyl)prop-2-en-1-one]",–
–,–,–,–,–,–,–,–,–,–,–,–,–,–,215,"Cc1c(C(=O)C=Cc2ccc(Cl)cc2Cl)cnn1-c1ccccc1 [L^II, 3-(2,4-dichlorophenyl)-1-(5-methyl-1-phenyl-1H-pyrazol-4-yl)prop-2-en-1-one]",–
9.1,9.5,11,12,16.8,26,28.9,9.36,10.8,21.4,32.4,67,71.5,74.1,281,"Cc1c(C(=O)C=Cc2cccc([N+](=O)[O-])c2)cnn1-c1ccccc1 [L^III, 1-(5-methyl-1-phenyl-1H-pyrazol-4-yl)-3-(3-nitrophenyl) prop-2-en-1-one]",Binding constant (kb) [3]: 15590 M⁻¹; Interaction mode [3]: Intercalative; Quenching constant (Ksv) ([4]; Stern–Volmer): 3030 M⁻¹; Binding constant (Kb) ([4]; modified Stern–Volmer): 4315.8 M⁻¹; Binding mode from cyclic voltammetry [5]: intercalation; IC50 ([1]; IC50 α-amylase): 984 µM
